Reference: patent EP0221719A2, “Novel cephalosporin derivatives, processes for their preparation and pharmaceutical compositions containing them” (BIOGAL GYOGYSZERGYAR, priority 1985, dated 1987)
Values after ≈ are worked out from the molar mass of the structure shown. Structures can show the parent of a compound that is named as a salt. Where two headings read alike, the source gives them in different places.

What was measured:
Pseudomonas aeruginosa = test: microbe, parasite or virus in culture; settings: 24 h
[1] = test system: Salmonella typhi murium and Proteus vulgaris; test: In vivo effectivity in artificially infected mice (protection test); settings: for living animal / group 1st day / living animal / group 3rd day: groups of 5 infected mice; for ED50: sc
Escherichia coli K12 = test: MIC determination (antibacterial activity in vitro); format: cell-based; settings: after 24 hours
Escherichia coli 6R = test: as above; format: cell-based; settings: 24 h
[2] = test system: Escherichia coli poliresistens; test: as above; format: cell-based; settings: 24 h
Escherichia coli R-222 = test: as above; format: cell-based; settings: R222, 24 h
Escherichia coli R-15 = test: as above; format: cell-based; settings: R15, after 24 hours
[3] = test system: Klebsiella sp. ATCC 10031; test: as above; format: cell-based; settings: ATCC10031, after 24 hours
Proteus vulgaris XL = test: as above; format: cell-based; settings: after 24 hours
[4] = test system: Pseudomonas pyocyanea NTCT 10.490; test: as above; format: cell-based; settings: Pseudomonas aeruginosa, NTCT10.490, after 24 hours
Method: The MIC values expressed in mcg./mi. of SZMFO 110 after 24 hours are contained in Table 1.

Salmonella typhi murium = test: as above; format: cell-based; settings: Salmonella enterica, 24 h
Shigella sonnei = test: as above; format: cell-based; settings: after 24 hours
[5] = test system: Bacillus subtilis ATCC 6633; test: as above; format: cell-based; settings: ATCC6633, after 24 hours
[6] = test system: Staphylococcus aureus 1110; test: as above; format: cell-based; settings: after 24 hours
Staphylococcus aureus 53 = test: as above; format: cell-based; settings: after 24 hours
[7] = test system: Staphylococcus aureus Smith; test: as above; format: cell-based; settings: after 24 hours
[8] = test system: Staphylococcus epidermidis A CC I-12228; test: as above; format: cell-based; settings: ACCI12228, after 24 hours
[9] = test system: Streptococcus haemolyticus Pneumo; test: as above; format: cell-based; settings: after 24 hours
[10] = test system: Streptococcus haemolyticus A118; test: as above; format: cell-based; settings: after 24 hours
[11] = test system: Streptococcus haemolyticus Robb; test: as above; format: cell-based; settings: after 24 hours
[12] = test system: Clostridium perfringens Cp.; test: microbe, parasite or virus in culture; format: cell-based; settings: 24 h

Compound	MIC (Pseudomonas aeruginosa) [µg/mL]	living animal / group 1st day ([1]; 0.2 mg./kg. subcutaneously)	living animal / group 3rd day ([1]; 0.2 mg./kg. subcutaneously)	living animal / group 1st day ([1]; 1 mg./kg. subcutaneously)	living animal / group 3rd day ([1]; 1 mg./kg. subcutaneously)	living animal / group 1st day ([1]; 5 mg./kg. subcutaneously)	living animal / group 3rd day ([1]; 5 mg./kg. subcutaneously)	living animal / group 1st day ([1]; 25 mg./kg. subcutaneously)	living animal / group 3rd day ([1]; 25 mg./kg. subcutaneously)	living animal / group 1st day ([1]; 100 mg./kg. subcutaneously)	living animal / group 3rd day ([1]; 100 mg./kg. subcutaneously)	ED50 ([1]; 24 h, read-out: ED50 1st day) [mg/kg]	ED50 ([1]; 72 h, read-out: ED50 3rd day) [mg/kg]	further results
CO/N=C(\C(=O)N[C@@H]1C(=O)N2C(C(=O)O)=C(CSc3nnnn3C)CS[C@H]12)c1csc(N)n1 [Cefmenoxime, (6R,7R)-7-/2-(2-amino-4-thiazolyl)glyoxylamido/-3-//(1-methyl-1H-tetrazol-5-yl)thio/methyl/-8-oxo-5-thia--1-azabicyclo/4.2.0/oct-2-ene-2-carboxylic acid 7^2-(Z)-(O-methyloxime)]	64 (≈ 125 µM)													
CCN1CCN(C(=O)N[C@@H](C(=O)N[C@@H]2C(=O)N3C(C(=O)O)=C(CSc4nnnn4C)CS[C@H]23)c2ccc(O)cc2)C(=O)C1=O [Cefoperazone, 7-[D-(-)-α-(4-ethyl-2,3-dioxo-1-piperazinecarboxamido)-α-(4-hydroxyphenyl)-acetamido]-3-[[(1-methyl-1H-tetranol-5-yl)thio]methyl]-ceph-3-em-4-carboxylic acid, reference compound]	8 (≈ 12.4 µM)	1	1	4	1	5	3	4	4	5	4	0.44	3.7	
CO/N=C(\C(=O)N[C@@H]1C(=O)N2C(C(=O)O)=C(COC(C)=O)CS[C@H]12)c1csc(N)n1 [Cefotaxime, 7-[2-(2-amino-4-thiazolyl)-2-methoxy-iminoacetamido]-cephalosporanic acid]	32 (≈ 70.3 µM)													
CC(C)(ON=C(C(=O)NC1C(=O)N2C(C(=O)[O-])=C(C[n+]3ccccc3)CSC12)c1csc(N)n1)C(=O)O [Ceftazimide, 1-//(6R,7R)-7-/2-(2-amino-4-thiazolyl)glyoxylamido/--2-carboxy-8-oxo-5-thia-1-azabicyclo/4.2.0/oct-2-ene--3-yl/methyl/pyridinium hydroxide inner salt 7^2-(Z)-/0-(1-carboxy-1-methylethyl)oxime/]	4													
CO/N=C(\C(=O)N[C@@H]1C(=O)N2C(C(=O)O)=CCS[C@H]12)c1csc(N)n1 [Ceftizoxime, (6R,7R)-7-/2-(2-amino-4-thiazolyl)glyoxylamido/-8--oxo-5-thia-l-azabicyclo/4.2.0/oct-2-ene-2-carboxylic acid 7^2-(Z)-(0-methyloxime)]	64 (≈ 167 µM)													
CON=C(C(=O)NC1C(=O)N2C(C(=O)O)=C(CSc3nnc(S)s3)CSC12)c1csc(N)n1 (stereo not drawn) [SZMFO 110, 7β-[2-(2-aminothiazol-4-yl)-(Z)-2-methoxyimino-acetamido]-3-[(2-mercapto-1.3.4-thiadiazol-5-yl)thiomethyl]-ceph-3-em-4-carboxylic acid]	0.31 (≈ 0.568 µM)	0	0	4	4	5	4	5	5	5	4	0.62	0.62	MIC (Escherichia coli K12): 0.03 µg/mL (≈ 0.055 µM); MIC (Escherichia coli 6R): 0.25 µg/mL (≈ 0.458 µM); MIC [2]: 0.16 µg/mL (≈ 0.293 µM); MIC (Escherichia coli R-222): 0.03 µg/mL (≈ 0.055 µM); MIC (Escherichia coli R-15): 0.16 µg/mL (≈ 0.293 µM); MIC [3]: 0.007 µg/mL (≈ 0.0128 µM); MIC (Proteus vulgaris XL): 0.007 µg/mL (≈ 0.0128 µM); MIC [4]: 0.31 µg/mL (≈ 0.568 µM); MIC (Salmonella typhi murium): 0.06 µg/mL (≈ 0.11 µM); MIC (Shigella sonnei): 0.06 µg/mL (≈ 0.11 µM); MIC [5]: 0.08 µg/mL (≈ 0.147 µM); MIC [6]: 6.2 µg/mL (≈ 11.4 µM); MIC (Staphylococcus aureus 53): 1.6 µg/mL (≈ 2.93 µM); MIC [7]: 1.25 µg/mL (≈ 2.29 µM); MIC [8]: 0.6 µg/mL (≈ 1.1 µM); MIC [9]: 0.03 µg/mL (≈ 0.055 µM); MIC [10]: 0.03 µg/mL (≈ 0.055 µM); MIC [11]: 0.03 µg/mL (≈ 0.055 µM); MIC [12]: 0.004 µg/mL (≈ 0.00733 µM)
